Holding throughout (test): NCI anticancer screen, dose series, 48 h
Experiment [1] relates to CCRF-CEM leukemia.
Experiment [2] relates to MALME-3M melanoma.
Experiment [3] deals with NCI-H460 lung.
The subject of experiment [4] is SNB-75 CNS.
The subject of experiment [5] is SF-268 CNS.
Experiment [6] has as its system UACC-257 melanoma.
The subject of experiment [7] is 786-0 renal.
The subject of experiment [8] is HL-60(TB) leukemia.
In experiment [9] the test system is IGROV1 ovarian.
Experiment [10] deals with NCI-H23 lung.
Experiment [11] relates to RPMI-8226 leukemia.
For experiment [12], the system named is A549 NSCLC.
The subject of experiment [13] is HOP-62 NSCLC.
For experiment [14], the system named is SW-620 colon.
For experiment [15], the system named is SK-MEL-5 melanoma.
The subject of experiment [16] is HCC-2998 colon.

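Where inhibition never reached the appropriate level, the endpoint shown equals the highest concentration tested. Otherwise, values were interpolated linearly from a five-concentration, 48-hour dose response in 96-well plates. TGI denotes the concentration required for complete inhibition of growth.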

As for `CN(C)CCSC(=Nc1ccccc1)n1cccc1`, the TGI in experiment [1] is more than 100 µM; in experiment [2], more than 100 µM; in experiment [3] it was more than 100 µM; in experiment [4] it was 96.4 µM; in experiment [5] it was more than 100 µM; in experiment [6], more than 100 µM. Further, the TGI in experiment [7], in experiment [8], in experiment [9], in experiment [10], in experiment [11] and in [12] was more than 100 µM each time. The TGI in experiment [13], in [14] and in experiment [15] was more than 100 µM each time.

Regarding `CC(C)C1COC(C(C)(C)C2=N[C@@H](C(C)C)CO2)=N1` (stereo partly drawn), the TGI in [1], in experiment [2], in experiment [3], in experiment [4], in [5] and in [16] was more than 100 µM in each case. In addition, the TGI in [6], in experiment [7], in [8], in experiment [9], in experiment [10] and in experiment [11] was more than 100 µM in each case. The TGI in [12], in experiment [13], in experiment [14] and in [15] was more than 100 µM throughout.

With `COc1ccc(C2S/C(=C\c3ccc([N+](=O)[O-])cc3)C(=O)N2NC(=O)Cc2ccccc2)cc1` (stereo not drawn), the TGI in experiment [1], in [2], in [3], in experiment [4], in experiment [5] and in [6] was more than 100 µM each time. In addition, the TGI in experiment [7], in [8], in experiment [9], in [10], in experiment [11] and in experiment [12] was more than 100 µM in each case. For the same compound, the TGI in experiment [13], in [14] and in [15] was more than 100 µM throughout.

For `COc1cc2c(cc1OC)C(Cc1cc(Br)c(OC)c(OC)c1)=[N+](C)CC2`, the TGI in experiment [1], in [2], in experiment [3], in experiment [4], in [5] and in experiment [16] was more than 100 µM in each case. Further, the TGI in experiment [6], in experiment [7], in experiment [8], in [9], in experiment [10] and in [11] was more than 100 µM each time. Besides, the TGI in [12], in experiment [13], in experiment [14] and in [15] was more than 100 µM in each case.

Take `O[C@]12c3ccccc3C1CCCC2N1CCOCC1` (stereo partly drawn): the TGI in experiment [1], in experiment [2], in [3], in experiment [4], in experiment [5] and in experiment [6] was more than 100 µM throughout. Moreover, the TGI in [7], in experiment [8], in experiment [10], in [11], in [12] and in experiment [13] was more than 100 µM throughout. Further, the TGI in experiment [14] and in experiment [15] was more than 100 µM each time.

Regarding `COc1cc(CO)cc2c1[nH]c1ccccc12`, the TGI in experiment [1], in [2], in experiment [3], in experiment [5], in experiment [16] and in [7] was more than 25 µM each time. The TGI in experiment [8], in experiment [9], in experiment [11], in [12], in experiment [13] and in experiment [14] was more than 25 µM in each case. The TGI in experiment [15] was more than 25 µM.

For `CC(=O)OCc1ncccc1C(OC(C)=O)OC(C)=O`, the TGI in [1], in experiment [2], in experiment [3], in [4], in experiment [5] and in [6] was more than 100 µM in each case. Further, the TGI in experiment [7], in [8], in experiment [9], in experiment [10], in [12] and in [13] was more than 100 µM throughout. For the same compound, the TGI in experiment [14] and in experiment [15] was more than 100 µM in each case.

For `O=C(Cn1c2c(c3ccccc31)CCCC2)N1CCOCC1`, the TGI in experiment [1], in experiment [2], in [3], in experiment [5], in experiment [16] and in [6] was more than 100 µM throughout. Moreover, the TGI in experiment [7], in experiment [8], in [9], in [10], in experiment [11] and in [12] was more than 100 µM in each case. Besides, the TGI in experiment [13], in experiment [14] and in [15] was more than 100 µM in each case.

Take `CC1(C)OC2C(O1)[C@H]1OC(C(Cl)(Cl)Cl)=N[C@H]1C(I)[C@H]2N1C(=O)c2ccccc2C1=O` (stereo partly drawn): the TGI in experiment [1], in experiment [3], in experiment [4], in experiment [5], in experiment [6] and in [7] was more than 100 µM in each case. The TGI in experiment [8] was 44.4 µM; in experiment [9] it was 61.7 µM; in [10] it was more than 100 µM; in experiment [11], more than 100 µM; in experiment [12], 97.5 µM; in [13], more than 100 µM. Further, the TGI in experiment [14] and in experiment [15] was more than 100 µM throughout.

Consider `Cc1ccc([N+](=O)[O-])cc1NC(=O)/C(CC(=O)c1sc(C(N)=S)nc1C)=N\N`, for which the TGI in experiment [1] is 79.2 µM; in [2], more than 100 µM; in experiment [3] it was more than 100 µM; in [4], more than 100 µM; in [5], more than 100 µM; in [16], more than 100 µM. Further, the TGI in experiment [6] was more than 100 µM; in experiment [7], more than 100 µM; in experiment [8] it was more than 100 µM; in experiment [9] it was more than 100 µM; in [10] it was 83.8 µM; in experiment [11], more than 100 µM. Also, the TGI in experiment [12], in experiment [13], in experiment [14] and in experiment [15] was more than 100 µM in each case.

Values taken from PubChem BioAssay (NCI).
